Test results: the CheMixHub ionic liquid set

Assay: xn = mol fraction of the nth substance listed
Conditions: 100 kPa

CCCCCC[n+]1ccn(C)c1.[Br-] + OC[C@H]1O[C@@](CO)(O[C@H]2O[C@H](CO)[C@@H](O)[C@H](O)[C@H]2O)[C@@H](O)[C@@H]1O + O
viscosity [mPa·s]
Conditions | 288.15 K | 298.15 K | 308.15 K | 318.15 K
x2 = 0.0009263, x1 = 0.001797 | 1.271 | 0.986 | 0.785 | 0.651
x2 = 0.000945, x1 = 0.003588 | 1.33 | 1.022 | 0.827 | 0.683
x2 = 0.001856, x1 = 0.001795 | 1.334 | 1.034 | 0.826 | 0.681
x2 = 0.001901, x1 = 0.003584 | 1.403 | 1.07 | 0.87 | 0.711
x2 = 0.001946, x1 = 0.005366 | 1.495 | 1.142 | 0.891 | 0.74
x2 = 0.002732, x1 = 0.001794 | 1.394 | 1.074 | 0.859 | 0.711
x2 = 0.002803, x1 = 0.003581 | 1.468 | 1.123 | 0.904 | 0.74
x2 = 0.002858, x1 = 0.005362 | 1.568 | 1.191 | 0.949 | 0.78
x2 = 0.003653, x1 = 0.001792 | 1.453 | 1.124 | 0.897 | 0.735
x2 = 0.003711, x1 = 0.003578 | 1.538 | 1.173 | 0.941 | 0.775
x2 = 0.003775, x1 = 0.005357 | 1.637 | 1.245 | 0.99 | 0.807
x2 = 0.004453, x1 = 0.003575 | 1.596 | 1.222 | 0.975 | 0.805
x2 = 0.004552, x1 = 0.005352 | 1.699 | 1.293 | 1.023 | 0.834
x2 = 0.005421, x1 = 0.001789 | 1.601 | 1.229 | 0.975 | 0.793
x2 = 0.005541, x1 = 0.003571 | 1.672 | 1.287 | 1.018 | 0.835
x2 = 0.005596, x1 = 0.005347 | 1.794 | 1.365 | 1.078 | 0.875
x2 = 0.006166, x1 = 0.001788 | 1.649 | 1.272 | 1.01 | 0.82
x2 = 0.006277, x1 = 0.003569 | 1.745 | 1.342 | 1.061 | 0.868
x2 = 0.006372, x1 = 0.005343 | 1.862 | 1.416 | 1.114 | 0.906
x2 = 0.007317, x1 = 0.001786 | 1.761 | 1.347 | 1.059 | 0.863
x2 = 0.007401, x1 = 0.005337 | 1.984 | 1.498 | 1.184 | 0.952
x2 = 0.007611, x1 = 0.003564 | 1.874 | 1.438 | 1.13 | 0.917
x2 = 0.00788, x1 = 0.001785 | 1.826 | 1.395 | 1.088 | 0.894
x2 = 0.008047, x1 = 0.003562 | 1.908 | 1.463 | 1.152 | 0.928
x2 = 0.008846, x1 = 0.005329 | 2.121 | 1.595 | 1.25 | 1.009
